# Source: patent US20250195540A1, “Use of dehydroepiandrosterone (DHEA) in preparation of drug for preventing and treating ophthalmic myopia, dosage forms of DHEA, and preparation methods of dosage forms” (Zhongshan Ophthalmic Center of Sun Yat-sen University, priority 2022, published 2025)
# System: form deprivation myopia (FDM) model
# Experiment: Efficacy research in form deprivation myopia (FDM) model
# Assay type: in vivo, colored guinea pigs
# Settings: applied locally to eyes
# From the text: (1) A total of 40 healthy three-week-old colored guinea pigs were randomly selected and randomly divided into 8 groups with 5 guinea pigs in each group. The 8 guinea pig groups includes a first group: a normal control group, a second group: a myopia model-alone group, a third group: a myopia model+0.01% DHEA-based eye drop group, a fourth group: a myopia model+0.1% DHEA-based eye drop group, a fifth group: myopia model+1% DHEA-based eye drop group, a sixth group: a myopia model+2% DHEA-based eye drop group, a seventh group: a myopia model+DHEA-based eye ointment group, and an eighth group: a myopia model+DHEA-based gel group. There were no statistically-significant differences in the baseline diopter and AL of the right eye among the groups.
# (2) Establishment of a form deprivation myopia (FDM) model: the right eye was covered and the left eye was normally opened. […]
# A) Diopter measurement: the optometry was conducted with a streak retinoscope and lenses of different diopters, and an average of diopters in horizontal and vertical meridians was taken. The optometry was conducted 3 times, and an average was taken and recorded as a result.
# B) AL measurement: ALs of both eyes were measured by an A-mode ultrasound instrument. Results of 6 measurements under waveform standards were selected, and an average was taken and recorded as a result, which was accurate to 0.01 mm.
compound,measurement,value
"C[C@]12CC[C@H](O)CC1=CC[C@@H]1[C@@H]2CC[C@]2(C)C(=O)CC[C@@H]12 [DHEA, 3-β-hydroxyandrost-5-en-17-one]",Growth of axial length (AL) in animal models,reduce the growth of axial length (AL)
